According to patent US12617770B2, “IRAK inhibitor and preparation method therefor and use thereof” (WUHAN CREATERNA SCIENCE AND TECHNOLOGY CO., LTD., priority 2019, dated 2026):

How the values were obtained:
human IRAK1 = target: T1, human IRAK1 (Homo sapiens, UniProt P51617); assay: IRAK1 MSA (Mobility-Shift Assay) at Km concentration of ATP; format: biochemical; settings: for IC50: read-out: IRAKI IC50; for IRAKI IC50 (nM)/ IRAK4 IC50 (nM): selectivity ratio IRAK1 to IRAK4
T1 construct: purchased Cama (so in the source)
T1 sequence (P51617 whole entry): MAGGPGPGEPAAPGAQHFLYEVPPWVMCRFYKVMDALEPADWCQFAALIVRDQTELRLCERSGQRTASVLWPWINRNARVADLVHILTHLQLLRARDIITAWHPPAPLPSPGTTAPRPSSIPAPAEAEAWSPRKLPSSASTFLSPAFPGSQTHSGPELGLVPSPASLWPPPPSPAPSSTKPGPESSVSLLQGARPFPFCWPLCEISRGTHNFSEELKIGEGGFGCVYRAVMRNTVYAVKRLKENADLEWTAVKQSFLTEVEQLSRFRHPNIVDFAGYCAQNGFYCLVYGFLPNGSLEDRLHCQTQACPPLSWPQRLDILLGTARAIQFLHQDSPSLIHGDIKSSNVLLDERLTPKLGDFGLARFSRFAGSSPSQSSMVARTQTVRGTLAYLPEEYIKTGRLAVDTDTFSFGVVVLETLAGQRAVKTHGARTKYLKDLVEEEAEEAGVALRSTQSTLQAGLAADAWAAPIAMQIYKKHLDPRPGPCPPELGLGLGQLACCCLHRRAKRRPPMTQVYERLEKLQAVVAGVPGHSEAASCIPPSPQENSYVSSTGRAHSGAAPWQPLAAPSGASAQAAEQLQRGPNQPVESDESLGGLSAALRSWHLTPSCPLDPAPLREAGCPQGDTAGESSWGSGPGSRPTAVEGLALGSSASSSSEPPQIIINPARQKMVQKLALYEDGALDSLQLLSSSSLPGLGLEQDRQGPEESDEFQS
Procedure: This assay evaluated the inhibitory effect of the compounds on human IRAK1 activity with the same materials as in Test Example 1.
A recombinant fusion protein of N-terminal GST (glutathione-S-transferase) and human IRAK1 was used as enzyme (GST-IRAK1, kinase IRAK1, Cama) at a final concentration of 3 nM: ATP (Sigma) was at a final concentration of 97 μM; the substrates used for the kinase reaction were 5-FAM (5-carboxyfluorescein)-labeled polypeptide (5-FAM-[…]-COOH) and substrate peptide FAM-P8 (GL Biochem) at final concentrations of 5 μM.
In this assay, 500 μM stock solutions of the compounds were prepared in 100% DMSO, and serially 4-fold diluted to the 10th concentration gradient with 100% DMSO, followed by a 10-fold dilution in the compound buffer (50 mM HEPES, pH 7.5, 0.00015% Brij-35) to give intermediate dilutions of the compounds at a final concentration of 10 μM−0.04 nM containing 10% DMSO. 5 μL of the intermediate dilution was transferred into a black 384-well plate.
IRAK1 was diluted to 7.5 nM in the kinase buffer (50 mM HEPES, pH 7.5, 0.00015% Brij-35, 2 mM DTT). 10 μL of the IRAK1 dilution was transferred to the 384-well plate and co-incubated with the compound for 10-15 min.
The substrate and ATP were diluted to 12.5 μM and 242.5 μM with reaction buffer (50 mM HEPES, pH 7.5, 0.00015% Brij-35, 10 mM MgCl2), respectively. 10 μL of the dilution was transferred to a 384-well plate and incubated at 28° C. for 1 h. The reaction was terminated by adding 25 μL of 50 mM EDTA to the 384-well plate.
The inhibition of IRAK1 by the compounds was calculated by measuring the rate of phosphorylated substrate using a Caliper EZ Reader (PerkinElmer) and the IC50 was calculated by XL-fit software.

[1] = Plasma protein binding (PPB), equilibrium dialysis, mouse plasma; format: in vitro ADME; settings: 5 h at 37° C., read-out: Plasma protein binding (Bound %) Mouse (converted)
Procedure: The experiment is intended to determine plasma protein binding (PPB) data of the test compounds disclosed herein.
In the PPB experiment, the final administration matrix contained the test compound or a reference compound with a concentration of 1 μM and DMSO with a content of 0.2%.
Collecting samples in initial time: 25 μL of the matrix containing the compound was added into a blank 96-well collecting plate, and the plate was stored at −20° C.
An equilibrated dialysis device was prepared. 100 μL of buffer was added to the receiving side of the equilibrium dialysis plate. Then 100 μL of the administration matrix containing the compound or the reference compound was added into an administration side of the equilibrium dialysis plate. The prepared equilibrium dialysis plate was placed in a 37° C. shaker to be shaken for 5 h at 60 rpm.
Sample was prepared at the end of cultivation (5 h): Preparing sample in the receiving side: 25 μL of sample from a receiving side was taken out and placed in a 96-well sample collecting plate, and 25 μL of a corresponding matrix (blank plasma) was added for mixing: 200 μL of ACN containing an internal standard was added, shaken for 10 minutes at 600 rpm, and centrifuged at 5594 g for 15 min.
Preparing sample in the administration side: 25 μL of the sample containing test compound and reference compound from the administration side was taken out and 25 μL of a blank buffer was added for mixing; 200 μL of ACN containing an internal standard was added, shaken for 10 minutes at 600 rpm, and centrifuged at 5594 g for 15 min.
Preparing sample in initial time: the sample containing test compound and reference compound was re-melted at 37° C. in initial time and then mixed with the corresponding matrix (blank buffer) in the same volume (25 μL); 200 μL of ACN containing an internal standard was added, shaken for 10 minutes at 600 rpm, and centrifuged at 5594 g for 15 min.
After all the samples were centrifuged, 50 μL of a supernatant was taken and added into 50 μL of ultrapure water for mixing, and the samples were sent to liquid chromatography-mass spectrometry.

CYP1A2 = target: T2, CYP1A2 (Homo sapiens, UniProt P05177); assay: CYP450 inhibition in human liver microsomes, CYP1A2; format: in vitro ADME; settings: pooled (mixed) human liver microsomes, probe phenacetin
T2 construct: co-incubated at 7 concentrations with human liver microsomes and five probe substrates; tissue Corning (USA); host or cells: mixed (pooled) human liver microsomes
T2 sequence (P05177 1-516): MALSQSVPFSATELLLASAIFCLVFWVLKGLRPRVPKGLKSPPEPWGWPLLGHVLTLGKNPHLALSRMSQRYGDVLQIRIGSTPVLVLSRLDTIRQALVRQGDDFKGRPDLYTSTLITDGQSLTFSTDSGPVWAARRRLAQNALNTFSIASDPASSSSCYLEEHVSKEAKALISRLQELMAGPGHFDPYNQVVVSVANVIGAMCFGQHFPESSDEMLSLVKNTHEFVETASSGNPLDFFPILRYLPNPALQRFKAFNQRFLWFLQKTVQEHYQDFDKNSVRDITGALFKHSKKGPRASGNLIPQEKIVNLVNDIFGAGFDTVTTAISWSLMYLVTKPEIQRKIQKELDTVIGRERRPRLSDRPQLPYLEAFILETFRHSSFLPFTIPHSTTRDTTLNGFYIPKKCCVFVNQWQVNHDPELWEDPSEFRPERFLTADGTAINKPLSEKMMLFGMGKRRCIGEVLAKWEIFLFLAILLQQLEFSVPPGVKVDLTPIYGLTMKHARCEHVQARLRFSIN
Procedure: This study was intended to investigate the inhibitory effect of the test compounds on 5 major enzymes in human P450 superfamily, CYP1A2, 2C9, 2C19, 2D6 and 3A4-M. The mixed human liver microsomes used in this assay were purchased from Corning (USA). The test compound (compound 14) was co-incubated at 7 concentrations with human liver microsomes and five probe substrates (phenacetin for CYP1a2, diclofenac for CYP2C9, mephenytoin for CYP2C19, dextromethorphan for CYP2D6, midazolam for CYP3A4-M, mixed). The reaction was initiated by adding coenzyme NADPH, and terminated by adding acetonitrile containing internal standard. After the proteins were precipitated, the supernatant was centrifuged. The characteristic metabolites in the supernatant (acetaminophen for CYP1A2, 4-hydroxydiclofenac for CYP2C9, 4-hydroxymephenytoin for CYP2C19, dextrorphan for CYP2D6, 1-hydroxymidazolam for CYP3A4-M) were analyzed by LC-MS/MS. The influence of the test compounds on production of the characteristic metabolites was finally analyzed on the basis of the data obtained. A selective inhibitor (ketoconazole for CYP3A4-M) may be used as positive control. All samples were tested in duplicate.

IC50 (human IRAK1)	IRAKI IC50 (nM)/ IRAK4 IC50 (nM) (human IRAK1)	fraction unbound at 5 h, 1 μM [1]	IC50 (CYP1A2)	Structure (SMILES)
4.04 µM	673.2	0.201	> 30 µM	COc1cc2nn([C@H]3CC[C@](C)(O)CC3)cc2cc1NC(=O)c1cccc(C)[n+]1[O-] [Compound 001, 2-((2-((1r,4r)-4-hydroxy-4-methylcyclohexyl)-6-methoxy-2H-indazol-5-yl)carbamoyl)-6-methylpyridine 1-oxide]
2.99 µM	130.1	0.162	> 30 µM	COc1cc2nn(CCC(C)(C)O)cc2cc1NC(=O)c1cccc(C)[n+]1[O-] [Compound 163, 2-((2-(3-hydroxy-3-methylbutyl)-6-methoxy-2H-indazol-5-yl)carbamoyl)-6-methylpyridine 1-oxide]
